PubChem BioAssay (NCI)
“And” between values parts separate entries of the source, which are not always exact repeats. Identical values can stand only once.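 Dose response: 5 concentrations. Exposure: 48 h. Format: 96-well plates. Endpoint: linear interpolation; highest concentration if not reached. GI50: concentration for 50% inhibition of growth. The concentration for full growth arrest is given as TGI.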 Where a SMILES comes first, the peptide text is derived from it. [ ]: non-standard residue; d: D form. The star is where a group is joined. ξ: configuration not given here. NMeF = CN[CH](Cc1ccccc1)C(=O)O; ξNMe2Val = CC(C)C(C(=O)*)N(C)C; NMeV = CN[CH](C(=O)O)C(C)C; ξNMeV = CNC(C(=O)O)C(C)C; Boc = CC(C)(C)OC(=O)*; OBn = c1ccc(CO*)cc1; OtBu = CC(C)(C)O*

Experiments:
Assay in all cases: NCI anticancer screen, dose series, 48 h
SK-MEL-5 melanoma = test system: SK-MEL-5 melanoma
SW-620 colon = test system: SW-620 colon
NCI-H23 lung = test system: NCI-H23 lung
OVCAR-3 ovarian = test system: OVCAR-3 ovarian
KM12 colon = test system: KM12 colon
OVCAR-4 ovarian = test system: OVCAR-4 ovarian
UACC-62 melanoma = test system: UACC-62 melanoma
HOP-62 NSCLC = test system: HOP-62 NSCLC
MDA-MB-435 = test system: MDA-MB-435
HS 578T breast = test system: HS 578T breast

SMILES	TGI (SK-MEL-5 melanoma) [µM]	TGI (SW-620 colon)	TGI (NCI-H23 lung) [µM]	TGI (OVCAR-3 ovarian) [µM]	TGI (KM12 colon)	TGI (OVCAR-4 ovarian) [µM]	TGI (UACC-62 melanoma) [µM]	TGI (HOP-62 NSCLC) [µM]	TGI (MDA-MB-435) [µM]	TGI (HS 578T breast) [µM]	GI50 (SW-620 colon) [µM]	GI50 (NCI-H23 lung) [µM]	GI50 (HS 578T breast) [µM]	GI50 (HOP-62 NSCLC) [µM]	GI50 (SK-MEL-5 melanoma) [µM]	GI50 (MDA-MB-435) [µM]	GI50 (OVCAR-3 ovarian) [µM]	GI50 (KM12 colon) [µM]
CCCCCCCCCCCC[N+]12CC[N+](C)(CC1)CC2	> 100	> 100 µM	60.9	> 100	20.7 µM	> 100	> 100	> 100										
NC(=O)/N=C/c1c(O)c2ccccc2oc1=O	> 100	> 100 µM	> 100	> 100	> 100 µM	> 100	> 100	> 100										
CC#COS(=O)(=O)c1ccc(C)cc1	> 100	> 100 µM	> 100	> 100	> 100 µM	> 100	> 100	> 100										
Cc1ccc(NC(=O)C2C3CCC(O3)C2C(=O)O)cc1 (stereo not drawn)	> 100	> 45.1 µM	> 100	> 89.7	> 100 µM	> 100	> 100	> 100										
CC(=O)OCC1OC(N=[N+]=[N-])C(OC(C)=O)C(OC(C)=O)C1OC1OC(COC(C)=O)C(OC(C)=O)C(OC(C)=O)C1OC(C)=O (stereo not drawn)	> 100	> 100 µM	> 100	> 100	> 100 µM	> 100	> 100											
O=c1c2c3c(sc2nc2n1NC=NN2)CCCC3	31.7	38.7 µM	> 62.6	30.5	34.1 µM	34.1	35.8		26.4	52.7								
COc1ccc([C@H]2CC3C(=O)N(c4ccc(OC)cc4)C(=O)C3c3[nH]c4ccccc4c32)cc1 (stereo partly drawn)	> 100	> 100 µM	> 100	> 100	> 100 µM	> 100	> 100	> 100										
COc1ccc(-c2nnc3n(C)c4ccccc4n3c2=O)cc1	> 100	> 100 µM	> 100		> 100 µM	> 100		37.5	> 100	> 100								
Cn1c(=O)c2[nH]c(SC/C(=N/O)c3ccc(Br)cc3)nc2n(C)c1=O		> 100 µM	4.75					5.09		7.9	> 100	2.08	3.05	2.3				
CSC(C1c2ccccc2N(C)c2[nH]c(=O)n(C)c(=O)c21)S(=O)(=O)c1ccc(C)cc1 (stereo not drawn)	> 100	> 100 µM	> 100	> 100		> 100	> 100	> 100										
O=C(CC(C(=O)c1cccs1)c1ccsc1)c1ccc(Cl)s1 (stereo not drawn)	> 100	> 100 µM	> 100		> 100 µM	> 100	> 100	> 100	> 100	> 100								
O=S(=O)(c1ccccc1)c1ccc(-c2nc(-c3ccc4c(c3)Sc3ccccc3S4)cs2)cc1		> 100 µM	36.1	> 100	> 100 µM	> 100	> 100	45.5	> 100	> 100								
Brc1ccc(-c2cc3c(cc2C2SCCS2)OCO3)cc1	> 100	> 100 µM	> 100	75.9	> 100 µM	> 100		> 100										
Cc1cc(O)c2c(c1)C(C1c3cccc(O)c3C(=O)c3c(O)cc(C)cc31)c1cccc(O)c1C2=O (stereo not drawn)	0.557	12.9 µM	4.65	0.739	4.29 µM	5.1		3	10.7	33.3								
COc1ccc(C2=Nc3ccccc3N=C(SC)C2)cc1	> 100	41 µM	> 100	> 100	> 100 µM	> 100	> 100	> 100										
CCCCCCCCCCCCOC1C(COCCN2CCCCC2)OC2OC(C)(C)OC21 (stereo not drawn)	2.93	3.23 µM	6.06	7.25	3.06 µM		3.27	3.25	3.17	4.17								
COc1ccccc1C(=O)OCC1CCCN2CCCCC12 (stereo not drawn)	> 100	> 100 µM	> 100		36.6 µM	> 100	> 100		> 100	> 100								
CCOC(=O)c1cc(C)nc2c1c(=O)n(-c1ccccc1)c(=O)n2CCCCN1CCN(c2ncccn2)CC1	> 100	> 100 µM	> 100	> 100	> 100 µM		> 100	> 100	> 100	> 100								
C(=C/c1nnnn1-c1ccccc1)/Nc1ccccc1	27.7	> 100 µM	79.2	96	> 100 µM		> 100	81.6	92.9	> 100								
COc1cc2c[n+](C)c3c4cc(OC)c(OCc5ccccc5)cc4c(OCc4ccccc4)cc3c2cc1OC	6.77	20.5 µM	20.5	10.8	23.8 µM	> 55	10.4	39.3	10.5									
COc1ccc(NC(=O)C(=O)Cc2ccc([N+](=O)[O-])c([N+](=O)[O-])c2CC(=O)C(=O)Nc2ccc(OC)cc2OC)c(OC)c1		> 100 µM	> 100	> 100	> 100 µM	> 100	> 100	> 100										
COc1ccc(/C=C/C(=O)c2ccc(Br)cc2)cc1	> 100	> 100 µM	> 100		> 100 µM	> 100	> 100	> 100	> 100	> 100								
CC(C)C(C(=O)N(C)C(Cc1ccccc1)C(=O)N(C)C(C(=O)N(C)C(C(=O)N1CCCC1C(=O)OC(C)(C)C)C(C)C)C(C)C)N(C)C (stereo not drawn) (ξNMe2Val-[NMeF][NMeV][NMeV]P-OtBu; configuration not given here)	38.8	> 100 µM	> 100	> 100	> 100 µM		> 100	> 100										

SMILES	TGI (SK-MEL-5 melanoma) [µM]	TGI (SW-620 colon)	TGI (NCI-H23 lung) [µM]	TGI (OVCAR-3 ovarian) [µM]	TGI (KM12 colon)	TGI (OVCAR-4 ovarian) [µM]	TGI (UACC-62 melanoma) [µM]	TGI (HOP-62 NSCLC) [µM]	TGI (MDA-MB-435) [µM]	TGI (HS 578T breast) [µM]	GI50 (SW-620 colon) [µM]	GI50 (NCI-H23 lung) [µM]	GI50 (HS 578T breast) [µM]	GI50 (HOP-62 NSCLC) [µM]	GI50 (SK-MEL-5 melanoma) [µM]	GI50 (MDA-MB-435) [µM]	GI50 (OVCAR-3 ovarian) [µM]	GI50 (KM12 colon) [µM]
Cc1nn2c(c1C#N)NNc1c-2sc(=N)nnc1=O	> 100	> 100 µM	> 100	> 100	> 100 µM	> 100	> 100	> 100										
C=CCOC(=O)Cn1ccc(=O)[nH]c1=O	> 100	> 100 µM	> 100		> 100 µM		> 100	> 100		> 100								
CN(C)CCC[N+]1=Nc2cccc3cccc(c23)N1	34.2	44.9 µM	> 100	> 100	> 100 µM	> 100	> 100	> 100										
Nc1ccn(C2CCC(COP(=O)(O)OCC(O)COP(=O)(O)OCC3OC(n4cc(F)c(=O)[nH]c4=O)CC3O)O2)c(=O)n1 (stereo not drawn)	> 21	> 100 µM	> 100	> 100	> 100 µM	> 100		> 100	> 100	> 100								
COc1ccc(N2C(=O)/C(=C/c3ccc(N(CCC#N)CCC#N)cc3)N=C2c2ccccc2)cc1	> 100	> 100 µM		> 100	> 100 µM	> 100	> 100	> 100	> 100	> 100								
C=C(C)CCC1C=[N+]([O-])OC(C)(C)C1(C)C (stereo not drawn)	> 100	> 100 µM		> 100	> 100 µM		> 100	> 100	> 100	> 100								
CC(C)(C)OC(=O)N1N=CCC1c1ccccc1 (stereo not drawn)	> 100	> 100 µM	> 100	> 100	> 100 µM		> 100	> 100	> 100	> 100								
COC(=O)C(CCC1(C)OCCO1)=[N+]=[N-]	> 100	> 100 µM	> 100	> 100	> 100 µM	> 100		> 100										
CC#CCCCC1(C)CCNC1=S (stereo not drawn)		> 10 µM	> 10	> 10	> 10 µM	> 10			> 10	> 10								
COc1ccc(-c2cc(-c3ccc(Nc4ccnc5cc(Cl)ccc45)cc3)[nH]c(=O)c2C#N)cc1		> 100 µM	> 100	> 100	> 100 µM	> 100	> 100	> 100	> 100	> 100								
CSc1nc(NCc2ccccc2)c2cnn(COCCO)c2n1	> 100	> 100 µM	> 100	> 100	> 100 µM	> 100	> 100	> 100	80.5									
CCOS(=O)(=O)c1ccc(-c2c3nc(c(-c4ccc(S(=O)(=O)OCC)cc4)c4ccc([nH]4)c(-c4ccc(S(=O)(=O)OCC)cc4)c4nc(c(-c5ccc(S(=O)(=O)OCC)cc5)c5ccc2[nH]5)C=C4)C=C3)cc1	> 31.6	> 31.6 µM	> 31.6		> 31.6 µM	> 31.6	> 31.6		> 31.6	> 31.6								
CC(C)C(C(=O)N(C)[C@H](C(=O)N1CCC[C@H]1C(=O)N(C)[C@@H](Cc1ccccc1)C(=O)OCc1ccccc1)C(C)C)N(C)C(=O)[C@@H](NC(=O)OC(C)(C)C)C(C)C (stereo partly drawn) (Boc-V[ξNMeV][NMeV]P[NMeF]-OBn)	15.5	> 31.6 µM	> 100	> 100		> 100	> 31.6	> 31.6										
Cc1ccnc(Nc2[nH]c(C(=O)c3ccc(Cl)cc3)c(N)c2C(=S)Nc2ccccc2)c1		69.6 µM	46.5	93	32.4 µM	29.4	25.3	47.3	35.3									
C/C(=N\NC(N)=S)c1nc2ncccc2[nH]1	> 100	> 100 µM		> 100	> 100 µM	> 100	> 100	> 100	> 100	> 100								
O=S(O)c1cc(Cl)c(O)c(Cl)c1			> 100	> 100	> 100 µM	> 100	> 100	> 100										
COC(=O)C12Oc3ccc(-c4ccc5c(c4O)C(O)=C4C(=O)CC(C)C(O)C4(C(=O)OC)O5)c(O)c3C(O)=C1C(=O)CC(C)C2O (stereo not drawn)	0.147	> 100 µM			> 100 µM	> 100	1.37	12.6	1.96	3.86								
O=c1[nH]c2ccc(CC(=S)N3CCOCC3)cc2o1		> 100 µM	> 100	> 100	> 100 µM		> 100	> 100	> 100	> 100								
COc1cc(O)c(Cc2ccccc2O)c(O)c1C(=O)CCc1ccccc1	9.36	29.4 µM	12	16.1	25.3 µM	18.5	19.1	9.89										
N#COc1ccc(Oc2ccc(OC#N)cc2)cc1	> 100		> 100	> 100	> 100 µM	> 100	> 100	> 100										
CCN(C(=O)N[C@H](C(=O)N[C@@H](CSC)C(=O)N[C@@H](C)C(=O)OC)C(C)C)c1ccccc1	30.8	28 µM	33.4	34.5	29.1 µM	47.4	27	36.4	27.8									
CC1OC(O[C@@H]2C=C3CC[C@@H]4[C@H](CC[C@]5(C)[C@@H](c6ccc(=O)oc6)CC[C@]45O)[C@@]3(C)CC2)C(O)C(OC2OC(CO)C(O)C(O)C2O)C1O (stereo partly drawn)	0.0175	0.0348 µM and 0.0288 µM	0.0236	0.0253	0.182 µM and 0.039 µM	0.00798	0.0263	0.00151	0.02						0.00014	0.000454	0.000162	0.000437
NC1=Nc2ccccc2Sc2cccc(F)c21	> 100	> 100 µM	> 100	> 100	> 100 µM	> 100	> 100	> 100	> 100									
